From article PMC9860708, “Parent-Metabolite Pharmacokinetic Modeling of Formononetin and Its Active Metabolites in Rats after Oral Administration of Formononetin Formulations” (Pharmaceutics, 2022)
Like-named read-outs stand apart in the source and are kept apart here.

Experiments:
human serum albumin = conditions: concentration levels of 3–15 μM DZN, ref Song et al. 23; cited from earlier work
[1] = Plasma protein binding assay (ultrafiltration, Centrifree); assay type: in vitro ADME; conditions: male SD rat plasma, n = 3
Procedure: The plasma protein binding of FMN, DZN, DHD and EQL was estimated using Ultra-filtration method using Centrifree® micro-partition system (Amicon Inc., Lexington, MA, USA). The experiment was conducted at concentrations of 50, 150, 500 and 1000 ng/mL (n = 3) for all four compounds in male SD rat plasma. The spiked plasma samples were allowed to equilibrate for at least 15 min before it was put into Centrifree® ultrafiltration tubes. The tubes were centrifuged at 1000× g for 15 min at 37 °C. Then, compound concentrations in the ultrafiltrate buffer (CUF) and plasma in the sample reservoir (Ctotal) were quantitated by the anlytical method described in Section 2.3. The plasma protein binding rate was calculated using the following formula: Plasma protein binding (%)=[…]

[2] = Pharmacokinetic evaluation after oral administration of FMN solution and formulations (non-compartmental analysis); conditions: 20 mg/kg FMN, all three groups
Procedure: The animals were maintained in the temperature and humidity range of 25 ± 1 °C and 50 ± 5% RH, respectively, over the acclimation period. To minimize the effects of food on pharmacokinetic profile of isoflavones, the animals were fasted overnight with free access to water.
Animals were allocated equally into 3 groups (5 rats per group). […] The blood samples were immediately centrifuged (10,000× g, 10 min, 4 °C) to obtain plasma samples and was stored at −80 °C.
Determination of the four isoflavones and DZN-d4 (internal standard, IS) in samples were conducted using Acquity UPLC system (Waters Corp., Milford, MA, USA) coupled to Xevo TQ-S triple quadrupole mass spectrometry (Waters Corp., USA) with electrospray (ESI) source. The chromatographic separations of the four isoflavones was performed in a Kinetex C18 column (2.1 × 100 mm, 1.7 μm particle size, Phenomenex, Torrance, CA, USA) at 40 ± 0.5 °C. The mobile phase consisted of water (mobile phase A) and acetonitrile (mobile phase B) with gradient elution at a flow rate of 0.2 mL/min. […] The optimized collision energy of FMN, DZN, DHD, EQL and IS were −22, −38, −22, −15 and −38, respectively. Data acquisition and analysis were achieved using Masslynx 4.1 software (Waters Corp., USA).
The samples were extracted by protein precipitation using methanol. 50 μL of rat samples were added with 10 μL of the IS solution (10 μg/mL of DZN-d4 in 50% methanol) to correct the loss of analytes during sample preparation. 100 μL of methanol was added to the mixed sample, vortexed for 1 min and centrifuged at 15,000× g for 5 min. Then, 5 μL of aliquots were injected into the UPLC-MS/MS system. The method validation was performed according to the FDA guideline for industry bioanalytical method validation.
PK parameters such as the maximum plasma concentration (Cmax) and the time to reach Cmax (Tmax) were determined from plasma concentration-time curve. The linear trapezoidal rule was used to calculate area under the curve to the final measured concentration (AUC0-t), then area from Clast to area expolated to infinity was added to AUC0-t to integrate AUC0-∞. […] The PK analysis was performed using WinNonlin® software (version 8.2, Certara™ Company, Princeton, NJ, USA). Then, a PK model was developed for FMN and its metabolites following oral administration of solution or formulations. The model was implemented in the WinNonlin model with NLME engine and estimated using the naïve-pooled and First Order Conditional Estimation-Extended Least Squares (FOCE-ELS) algorithms. […]

[3] = parameters: method as in PMID 12714433; conditions: humans; cited from earlier work
[4] = cited from earlier work
[5] = parameters: method as in PMID 21266188; conditions: female rat plasma, cited from earlier work
[6] = oral 20 mg/kg FMN dissolved in 0.5% CMC-Na, male Sprague Dawley rats

fraction unbound at 15 min, 50 ng/mL [1] | fraction unbound at 15 min, 150 ng/mL [1] | fraction unbound at 15 min, 500 ng/mL [1] | fraction unbound at 15 min, 1000 ng/mL [1] | Detection of analyte in rat plasma after oral administration of FMN [2] | Structure (SMILES) | unbound DZN (human serum albumin) [µM] | FMN excreted intact [3] | Time at which the peak plasma concentration was reached ([4]; 2–50 mg/kg FMN orally administered, rats) [h] | oral bioavailability (F) ([4]; FMN solution dissolved in 0.5% CMC-Na, rats) [%] | clearance of FMN ([4]; intravenous administration, rats) [mL/min/kg] | AUCinf [4, 6] [µM·h] | Cmax [4, 6] [nM] | Plasma protein binding ([5]; 50 ng/mL) [%] | Plasma protein binding ([5]; 150 ng/mL) [%]
0.116 | 0.0664 | 0.145 | 0.082 | detected | COc1ccc(-c2coc3cc(O)ccc3c2=O)cc1 [FMN, Formononetin] | – | about 25% | 0.5 to 1 | 21.8 | 83 | 0.7577 ± 0.0482 | 302 ± 35.9 | 93.61 ± 0.44 | 96.14 ± 0.15
0.118 | 0.126 | 0.12 | 0.132 | not quantitated | O=C1c2ccc(O)cc2OCC1c1ccc(O)cc1 (stereo not shown) [DHD, Dihydrodaidzein] | – | – | – | – | – | – | – | – | –
– | 0.0131 | 0.0138 | 0.022 | not quantitated | Oc1ccc([C@H]2COc3cc(O)ccc3C2)cc1 [EQL, Equol] | – | – | – | – | – | – | – | – | –

Structure (SMILES) | fraction unbound at 15 min, 50 ng/mL [1] | fraction unbound at 15 min, 150 ng/mL [1] | fraction unbound at 15 min, 500 ng/mL [1] | fraction unbound at 15 min, 1000 ng/mL [1] | Detection of analyte in rat plasma after oral administration of FMN [2] | unbound DZN (human serum albumin) [µM] | FMN excreted intact [3] | Time at which the peak plasma concentration was reached ([4]; 2–50 mg/kg FMN orally administered, rats) [h] | oral bioavailability (F) ([4]; FMN solution dissolved in 0.5% CMC-Na, rats) [%] | clearance of FMN ([4]; intravenous administration, rats) [mL/min/kg] | AUCinf [4, 6] [µM·h] | Cmax [4, 6] [nM] | Plasma protein binding ([5]; 50 ng/mL) [%] | Plasma protein binding ([5]; 150 ng/mL) [%]
O=c1c(-c2ccc(O)cc2)coc2cc(O)ccc12 [DZN, Daidzein] | 0.0456 | 0.0342 | 0.0569 | 0.0531 | detected | 0.889 to 6.398 | – | – | – | – | – | – | – | –
